Experimental data as given in patent US20250122171A1, “Substituted Amine Compounds, Compositions and Methods of Use” (Deep Apple Therapeutics, Inc., priority 2023, published 2025).

target: T1, human MRGPRX2 (Homo sapiens, UniProt Q96LB1); assay: MRGPRX2 Activity Assay (IP-1 HTRF, antagonist mode); format: cell-based; conditions: FlpIn TRex-MRGPRX2-HEK293 cells; versus 1 μM Cortistatin-14 agonist; 30 minutes preincubation
T1 construct: expressed in transfected cells; host or cells: FlpIn TRex HEK293 (TRex-MRGPRX2-HEK), doxycycline-induced
T1 sequence (Q96LB1 1-330): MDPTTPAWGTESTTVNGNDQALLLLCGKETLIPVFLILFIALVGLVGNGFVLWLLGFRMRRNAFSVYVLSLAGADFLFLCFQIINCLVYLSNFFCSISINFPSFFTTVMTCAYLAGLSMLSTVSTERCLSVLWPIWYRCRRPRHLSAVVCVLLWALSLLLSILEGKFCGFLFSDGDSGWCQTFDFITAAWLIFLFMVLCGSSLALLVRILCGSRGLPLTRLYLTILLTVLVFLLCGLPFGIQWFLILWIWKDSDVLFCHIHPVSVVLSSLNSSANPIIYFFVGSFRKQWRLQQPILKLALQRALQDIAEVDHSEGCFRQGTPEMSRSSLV
Description: FlpIn TRex-MRGPRX2-HEK293 cells (herein TRex-MRPGRX2-HEK) stably transfected to express human MRGPRX2 were maintained at 37° C. with 5% CO2 and grown in DMEM supplemented with 10% FBS, 1% L-Glutamate, 1% penicillin/streptomycin, 100 ug/mL Hygromycin B, and 15 ug/mL Blasticidin.
GOI (MRGPRX2) expression was induced with 100 ng/mL of Doxycycline 18-24 hours prior to experiment, in flask. On the day of experiment, cells were lifted with TripLE Express and seeded in 384-well white walled opaque bottomed, assay plates, at 8,000 cells per well in 5 uL freshly made assay buffer (HBSS, 20 mM HEPES, 0.1% BSA and 10 mM LiCl). Compounds solubilized in 100% DMSO at 30 mM were serially diluted (1:4) first in 100% DMSO, and an intermediate plate of assay buffer was used to establish a final top concentration of 30 uM (in assay plate). Final DMSO concentration was kept constant at 1% across assay plates. […], at 30 mM stock concentration was solubilized in HBSS+0.1% BSA, stored at −20° C. in 5 μL aliquots and discarded after one freeze-thaw cycle. […].
Antagonist equilibrium was established with 30 minutes preincubation, followed by no wash, direct addition, and stimulation of agonist for 1 hour at 37° C./5% CO2. IP-1 standards and HTRF detection reagents were added according to the IP-one Gq kit protocol purchased from CisBio (part number 62IPAPEJ). The plate was read on an EnVision XCite plate reader. The HTRF ratio was then calculated from raw data (channel1/channel2×10,000) and analyzed using either GraphPad Prism or a custom Python script to calculate IC50 using Log[Antagonist] vs. response (4 parameter) nonlinear regression.

| SMILES | IC50 |
| --- | --- |
| C[C@@H](C(=O)Nc1cn(Cc2cc(F)cc(F)c2)c(C(F)F)n1)N1CCC(F)(F)CC1 [Compound 492, (S)—N-(1-(3,5-difluorobenzyl)-2-(difluoromethyl)-1H-imidazol-4-yl)-2-(4,4-difluoropiperidin-1-yl)propanamide] | 35 nM |
| C[C@@H](C(=O)Nc1cn(Cc2cc(F)cc(F)c2)cn1)N1CCC(F)(F)[C@@H](c2c[nH]c(=O)c(CO)c2)C1 (single isomer, unassigned) [Compound 71] | 2360 nM |
| C[C@@H](C(=O)Nc1cn(Cc2cc(F)cc(F)c2)c(C(F)(F)F)n1)N1CCC(F)(F)[C@@H](c2cc[n+]([O-])cc2)C1 (single isomer, unassigned) [Compound 25] | > 10000 nM |
| C[C@@H](C(=O)Nc1cn(Cc2ccc(F)cc2)cn1)N1CCC(F)(F)[C@@H](c2cc[n+]([O-])cc2)C1 [Compound 36, 4-((S)-4,4-difluoro-1-((S)-1-((1-(4-fluorobenzyl)-1H-imidazol-4-yl)amino)-1-oxopropan-2-yl)piperidin-3-yl)pyridine 1-oxide] | 209 nM |
| C[C@@H](C(=O)Nc1cn([C@@H](C)c2cc(F)cc(F)c2)cn1)N1CCC(F)(F)[C@@H](c2cc[n+]([O-])cc2)C1 (single isomer, unassigned) [Compound 15] | > 10000 nM |
| C[C@H](C(=O)Nc1cn(Cc2ccc(F)cc2F)c(C(F)(F)F)n1)N1CCC(F)(F)[C@@H](c2cc[n+]([O-])cc2)C1 (single isomer, unassigned) [Compound 8] | 9290 nM |
| C[C@@H](C(=O)Nc1cn2c(n1)[C@H](O)C[C@H]2c1cc(F)cc(F)c1)N1CCC(F)(F)[C@@H](c2ccc(=O)[nH]c2)C1 (single isomer, unassigned) [Compound 518] | > 30000 nM |
| C[C@@H](C(=O)Nc1cc2n(n1)CC[C@@H]2c1cc(F)cc(F)c1)N1CCC(F)(F)[C@@H](c2cc[n+]([O-])cc2)C1 (single isomer, unassigned) [Compound 549] | 439 nM |
| C[C@@H](C(=O)Nc1cn(-c2cc(F)cc(F)c2)cn1)N1CCC(F)(F)[C@@H](c2cc[n+]([O-])cc2)C1 [Compound 75, 4-((S)-1-((S)-1-((1-(3,5-difluorophenyl)-1H-imidazol-4-yl)amino)-1-oxopropan-2-yl)-4,4-difluoropiperidin-3-yl)pyridine 1-oxide] | 513 nM |
| C[C@@H](C(=O)Nc1cn(Cc2ccncc2Cl)cn1)N1CCC(F)(F)[C@@H](c2cc[n+]([O-])cc2)C1 [Compound 63, 4-((S)-1-((S)-1-((1-((3-chloropyridin-4-yl)methyl)-1H-imidazol-4-yl)amino)-1-oxopropan-2-yl)-4,4-difluoropiperidin-3-yl)pyridine 1-oxide] | 114 nM |
| C[C@@H](C(=O)Nc1cn(Cc2cc(F)ccc2C(F)(F)F)cn1)N1CCC(F)(F)[C@@H](c2cc[n+]([O-])cc2)C1 [Compound 62, 4-((S)-4,4-difluoro-1-((S)-1-((1-(5-fluoro-2-(trifluoromethyl)benzyl)-1H-imidazol-4-yl)amino)-1-oxopropan-2-yl)piperidin-3-yl)pyridine 1-oxide] | 267 nM |
| C[C@@H](C(=O)Nc1cn(Cc2cc(F)ccc2F)cn1)N1CCC(F)(F)[C@@H](c2cc[n+]([O-])cc2)C1 [Compound 40, 4-((S)-1-((S)-1-((1-(2,5-difluorobenzyl)-1H-imidazol-4-yl)amino)-1-oxopropan-2-yl)-4,4-difluoropiperidin-3-yl)pyridine 1-oxide] | 25 nM |
| C[C@@H](C(=O)Nc1cn2c(n1)CC[C@@H]2c1cc(F)cc(F)c1)N1CCC(F)(F)[C@](C)(c2cc[n+]([O-])cc2)C1 (single isomer, unassigned) [Compound 520] | 129 nM |
| C[C@@H](C(=O)Nc1cn(Cc2ccccc2C(F)(F)F)cn1)N1CCC(F)(F)[C@@H](c2cc[n+]([O-])cc2)C1 [Compound 41, 4-((S)-4,4-difluoro-1-((S)-1-oxo-1-((1-(2-(trifluoromethyl)benzyl)-1H-imidazol-4-yl)amino)propan-2-yl)piperidin-3-yl)pyridine 1-oxide] | 269 nM |
| CNCc1cc(C2CN([C@@H](C)C(=O)Nc3cn4c(n3)CC[C@@H]4c3cc(F)cc(F)c3)CCC2(F)F)c[nH]c1=O (stereo partly drawn) [Compound 529, (2S)-2-(4,4-difluoro-3-(5-((methylamino)methyl)-6-oxo-1,6-dihydropyridin-3-yl)piperidin-1-yl)-N—((R)-5-(3,5-difluorophenyl)-6,7-dihydro-5H-pyrrolo[1,2-a]imidazol-2-yl)propanamide] | 80 nM |
| C[C@@H](C(=O)Nc1cn(Cc2cc(F)cc(F)c2)cn1)N1CCC(F)(F)[C@H](c2c[nH]c(=O)c(CO)c2)C1 (single isomer, unassigned) [Compound 73] | 8560 nM |
| C[C@@H](C(=O)Nc1cn(Cc2cc(F)c(Cl)cc2F)cn1)N1CCC(F)(F)[C@@H](c2cc[n+]([O-])cc2)C1 [Compound 45, 4-((S)-1-((S)-1-((1-(4-chloro-2,5-difluorobenzyl)-1H-imidazol-4-yl)amino)-1-oxopropan-2-yl)-4,4-difluoropiperidin-3-yl)pyridine 1-oxide] | 885 nM |
| C[C@@H](C(=O)Nc1cn(Cc2cc(F)cc(F)c2)c(C(F)F)n1)N1CCC(F)(F)[C@H](c2c[nH]c(=O)c(CO)c2)C1 (single isomer, unassigned) [Compound 491] | 1640 nM |
| C[C@@H](C(=O)Nc1cn(Cc2cccc(Cl)c2F)cn1)N1CCC(F)(F)[C@@H](c2cc[n+]([O-])cc2)C1 [Compound 64, 4-((S)-1-((S)-1-((1-(3-chloro-2-fluorobenzyl)-1H-imidazol-4-yl)amino)-1-oxopropan-2-yl)-4,4-difluoropiperidin-3-yl)pyridine 1-oxide] | 78 nM |
| C[C@H](C(=O)Nc1cn(Cc2cc(F)cc(F)c2)c(Cl)n1)N1CCC(F)(F)[C@@H](c2cc[n+]([O-])cc2)C1 (single isomer, unassigned) [Compound 81] | > 30000 nM |
| C[C@@H](C(=O)Nc1cn2c(n1)[C@H](O)C[C@@H]2c1cc(F)cc(F)c1)N1CCC(F)(F)[C@@H](c2ccc(=O)[nH]c2)C1 (single isomer, unassigned) [Compound 515] | 4600 nM |
| C[C@@H](C(=O)Nc1cn2c(n1)CC[C@@H]2c1cc(F)cc(F)c1)N1CCC(F)(F)[C@@](C)(c2cc[n+]([O-])cc2)C1 (single isomer, unassigned) [Compound 519] | > 30000 nM |
| C[C@@H](C(=O)Nc1nc2cc3c(cc2s1)OCO3)N1CCC(F)(F)[C@@H](c2cc[n+]([O-])cc2)C1 (single isomer, unassigned) [Compound 12] | 196 nM |
| [2H]C([2H])(c1cc(F)cc(F)c1)n1cnc(NC(=O)[C@H](C)N2CCC(F)(F)[C@@H](c3cc[n+]([O-])cc3)C2)c1 [Compound 52, 4-((S)-1-((S)-1-((1-((3,5-difluorophenyl)methyl-d2)-1H-imidazol-4-yl)amino)-1-oxopropan-2-yl)-4,4-difluoropiperidin-3-yl)pyridine 1-oxide] | 22 nM |
| C[C@@H](C(=O)Nc1coc(Cc2cc(F)cc(F)c2)n1)N1CCC(F)(F)[C@@H](c2cc[n+]([O-])cc2)C1 (single isomer, unassigned) [Compound 27] | 587 nM |
| C[C@@H](C(=O)Nc1cn(Cc2cccc(Cl)c2)cn1)N1CCC(F)(F)[C@@H](c2cc[n+]([O-])cc2)C1 [Compound 43, 4-((S)-1-((S)-1-((1-(3-chlorobenzyl)-1H-imidazol-4-yl)amino)-1-oxopropan-2-yl)-4,4-difluoropiperidin-3-yl)pyridine 1-oxide] | 131 nM |
